Source: US7786141B2 (Vertex Pharmaceuticals Incorporated, priority 2004, dated 2010)
Where two headings read alike, the source gives them in different places.

What was measured:
M4 muscarinic receptor = target: T1, M4 muscarinic receptor (Homo sapiens, UniProt P08173); assay: Functional mobilization of intracellular calcium (FLIPR) in M4-CHO cells; assay type: cell-based
T1 construct: expressed in transfected cells; host or cells: CHO (M4-CHO)
T1 sequence (P08173 1-479): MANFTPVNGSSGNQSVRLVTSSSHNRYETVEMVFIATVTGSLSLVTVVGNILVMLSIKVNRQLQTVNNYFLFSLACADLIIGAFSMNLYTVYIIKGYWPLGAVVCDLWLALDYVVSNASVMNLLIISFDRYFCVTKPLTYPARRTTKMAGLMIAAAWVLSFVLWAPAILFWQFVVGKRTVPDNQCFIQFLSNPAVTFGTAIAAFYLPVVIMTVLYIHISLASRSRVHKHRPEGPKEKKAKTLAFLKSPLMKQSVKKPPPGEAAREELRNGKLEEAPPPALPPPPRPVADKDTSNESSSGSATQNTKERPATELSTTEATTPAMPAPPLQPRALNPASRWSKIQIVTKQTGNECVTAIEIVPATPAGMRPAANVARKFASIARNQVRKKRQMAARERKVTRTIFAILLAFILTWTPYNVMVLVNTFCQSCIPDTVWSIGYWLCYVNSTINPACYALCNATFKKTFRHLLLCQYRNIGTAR
In short: (§1)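 Measured via Fluo-3 fluorescence on a FLIPR, CHO cells with either muscarinic subtype received compound in 0.5% DMSO. Antagonism was assessed after 15 min pre-incubation followed by carbachol at each subtype's EC80; agonism from compound addition alone.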

M1 muscarinic receptor = target: T2, M1 muscarinic receptor (Homo sapiens, UniProt P11229); assay: Functional mobilization of intracellular calcium (FLIPR) in M1-CHO cells; assay type: cell-based
T2 construct: expressed in transfected cells; host or cells: CHO (M1-CHO)
T2 sequence (P11229 1-460): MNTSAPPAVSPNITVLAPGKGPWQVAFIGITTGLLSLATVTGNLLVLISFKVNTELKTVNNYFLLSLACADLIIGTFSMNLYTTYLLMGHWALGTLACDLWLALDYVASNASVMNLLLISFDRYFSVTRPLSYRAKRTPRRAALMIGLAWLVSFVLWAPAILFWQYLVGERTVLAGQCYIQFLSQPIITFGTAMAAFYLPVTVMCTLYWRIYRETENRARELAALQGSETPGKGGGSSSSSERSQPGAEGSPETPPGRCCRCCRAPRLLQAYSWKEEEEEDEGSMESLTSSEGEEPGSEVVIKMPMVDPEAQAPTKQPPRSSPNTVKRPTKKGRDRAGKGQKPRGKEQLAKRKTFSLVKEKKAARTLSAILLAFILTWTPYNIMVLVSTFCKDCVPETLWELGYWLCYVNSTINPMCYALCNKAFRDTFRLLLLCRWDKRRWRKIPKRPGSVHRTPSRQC
In short: as §1

[1] = M4 receptor, calcium mobilization
[2] = M4 receptor, calcium mobilization, read-out: M4 Efficacy
[3] = M1 receptor, calcium mobilization
[4] = M1 receptor, calcium mobilization, read-out: M1 Efficacy
[5] = Table 4, 100% efficacy is the maximum response obtained with the Carbachol control
[6] = Table 4, modulating M4 receptor
[7] = Table 4, modulating M1 receptor
[8] = Table 4, M4 receptor, calcium mobilization (FLIPR)
[9] = Table 4, M1 receptor, calcium mobilization (FLIPR)

Compound | M4 Activity (M4 muscarinic receptor; [1]) | Emax (M4 muscarinic receptor; [2]) [%] | M1 Activity (M1 muscarinic receptor; [3]) | Emax (M1 muscarinic receptor; [4]) [%] | Emax (M4 muscarinic receptor; [5]) [%] | M4 Activity (M4 muscarinic receptor; [6]) | Emax (M1 muscarinic receptor; [5]) [%] | M1 Activity (M1 muscarinic receptor; [7]) | M4 Activity (M4 muscarinic receptor; [8]) | M1 Activity (M1 muscarinic receptor; [9])
Clc1ccc2c(c1)C1(CCO2)CCN([C@@H]2C[C@@H]3CC[C@H]2C3)CC1 [compound 369] | xx (activity was measured to be between 0.1 μM and 1.0 μM) | > 85 | xxx (activity was measured to be less than 0.1 μM) | > 85 |  |  |  |  |  | 
CC(=O)N1CC2(CCN(C3CC4CCC(C3)N4C(=O)OCC(C)(C)C)CC2)c2ccccc21 (stereo not drawn) [compound 476] |  |  |  |  | < 25 | x (activity was measured to be greater than 5.0 μM) | < 25 | x (activity was measured to be greater than 5.0 μM) |  | 
O=C1CC2(CCN(C3CCCCC3)CC2)c2cc(Cl)ccc21 [compound 715] |  |  |  |  | 25 to 100 | xxx (activity was measured to be less than 2.0 μM) | 25 to 100 | xxx (activity was measured to be less than 2.0 μM) |  | 
C1=C[C@H]2C[C@H]1C[C@@H]2CN1CCC2(CCc3ccccc32)CC1 [compound 263] | xxx (activity was measured to be less than 0.1 μM) | < 65 | xxx (activity was measured to be less than 0.1 μM) | < 65 |  |  |  |  |  | 
CCOC(=O)N1CCC(N2CCC3(CC2)CN(C(C)=O)c2ccc(Cl)cc23)CC1 [compound 141] | xx (activity was measured to be between 0.1 μM and 1.0 μM) | > 85 | xxx (activity was measured to be less than 0.1 μM) | > 85 |  |  |  |  |  | 
CC(=O)N1CC2(CCN(C3CCN(c4cnccn4)CC3)CC2)c2ccccc21 [compound 505] |  |  |  |  | 25 to 100 | xxx (activity was measured to be less than 2.0 μM) | 25 to 100 | xxx (activity was measured to be less than 2.0 μM) |  | 
CCOC(=O)N1CCCC(N2CCC3(CC2)CN(C(=O)N(C)C)c2ccc(F)cc23)CC1 (stereo not drawn) [compound 698] |  |  |  |  | > 100 | xxx (activity was measured to be less than 2.0 μM) | > 100 | xxx (activity was measured to be less than 2.0 μM) |  | 
COC(=O)NC1CC2(CCN(C3C[C@@H]4CC[C@@H]3C4)CC2)c2ccccc21 (stereo partly drawn) [compound 586] |  |  |  |  | 25 to 100 | xxx (activity was measured to be less than 2.0 μM) | 25 to 100 | xxx (activity was measured to be less than 2.0 μM) |  | 
COCCOC(=O)N1C2CCC1CC(N1CCC3(CC1)C(=O)Nc1ccccc13)C2 (stereo not drawn) [compound 71] | xx (activity was measured to be between 0.1 μM and 1.0 μM) | < 65 | xxx (activity was measured to be less than 0.1 μM) | < 65 |  |  |  |  |  | 
CCCN1CC2(CCN(C[C@H]3C[C@H]4C=CC3C4)CC2)c2cc(F)ccc21 [compound 984] |  |  |  |  | 25 to 100 |  | 25 to 100 |  | xxx (activity was measured to be less than 2.0 μM) | xx (activity was measured to be between 2.0 μM and 5.0 μM)
CCOC(=O)N(C)[C@H]1CC2(CCN(C[C@H]3C[C@H]4CC[C@H]3C4)CC2)c2ccccc21 [compound 347] | xx (activity was measured to be between 0.1 μM and 1.0 μM) | > 85 | xxx (activity was measured to be less than 0.1 μM) | 65 to 85 |  |  |  |  |  | 
CC(=O)NC1CC2(CCN(CC3CC4C=CC3C4)CC2)c2ccc(C)cc21 (stereo not drawn) [compound 985] |  |  |  |  | 25 to 100 |  | 25 to 100 |  | xx (activity was measured to be between 2.0 μM and 5.0 μM) | x (activity was measured to be greater than 5.0 μM)
CCC#CCOC(=O)N1CC[C@@H](CN2CCC3(CC2)CN(C(C)=O)c2cccc(C)c23)C1 [compound 793] |  |  |  |  | 25 to 100 | xxx (activity was measured to be less than 2.0 μM) | 25 to 100 | xxx (activity was measured to be less than 2.0 μM) |  | 
O=C(N[C@H]1CC2(CCN(CC3CCCCC3)CC2)c2ccccc21)c1ccoc1 [compound 639] |  |  |  |  | < 25 | x (activity was measured to be greater than 5.0 μM) | 25 to 100 | x (activity was measured to be greater than 5.0 μM) |  | 
O=C(O[C@H]1CCOC1)N1C2CCC1CC(N1CCC3(CC1)COc1ccc(F)cc13)C2 (stereo partly drawn) [compound 212] | x (activity was measured to be greater than 1.0 μM) | < 65 | x (activity was measured to be greater than 1.0 μM) | < 65 |  |  |  |  |  | 
CC(=O)NC1CCC2(CCN(CCC3CCCN(C(=O)OCC(C)C)C3)CC2)c2ccccc21 (stereo not drawn) [compound 741] |  |  |  |  | < 25 | x (activity was measured to be greater than 5.0 μM) | < 25 | x (activity was measured to be greater than 5.0 μM) |  | 
CCOC(=O)N1CCC(N2CCC3(CC2)CN(C(=O)[C@@H](O)CC)c2ccc(F)cc23)CC1 [compound 1004] |  |  |  |  | 25 to 100 |  | 25 to 100 |  | xxx (activity was measured to be less than 2.0 μM) | xxx (activity was measured to be less than 2.0 μM)
CCOC(=O)N1CCC(N2CCC3(CC2)CN(C(=O)[C@H](O)CC)c2ccc(F)cc23)CC1 [compound 730] |  |  |  |  | 25 to 100 | xxx (activity was measured to be less than 2.0 μM) | 25 to 100 | xxx (activity was measured to be less than 2.0 μM) |  | 
CS(=O)(=O)N[C@H]1CCC2(CCN(CC3CC4C=CC3C4)CC2)c2ccccc21 (stereo partly drawn) [compound 627] |  |  |  |  | 25 to 100 | xxx (activity was measured to be less than 2.0 μM) | 25 to 100 | xxx (activity was measured to be less than 2.0 μM) |  | 
COCCN1CC2(CCN([C@@H]3C[C@H]4CCC3C4)CC2)c2cc(C)ccc21 [compound 737] |  |  |  |  | 25 to 100 | xxx (activity was measured to be less than 2.0 μM) | 25 to 100 | xx (activity was measured to be between 2.0 μM and 5.0 μM) |  | 
CN(C)C(=O)N1CC2(CCN(C3CCN(C(=O)CC(F)(F)F)CC3)CC2)c2cc(F)ccc21 [compound 592] |  |  |  |  | < 25 | x (activity was measured to be greater than 5.0 μM) | 25 to 100 | xx (activity was measured to be between 2.0 μM and 5.0 μM) |  | 
Clc1ccc2c(c1)C1(CCO2)CCN(C[C@@H]2C[C@H]3C=C[C@H]2C3)CC1 [compound 164] | x (activity was measured to be greater than 1.0 μM) | > 85 | xx (activity was measured to be between 0.1 μM and 1.0 μM) | > 85 |  |  |  |  |  | 
CC(=O)N1CC2(CCN(C3CCN(c4nc(C)ns4)CC3)CC2)c2cc(F)ccc21 [compound 943] |  |  |  |  | 25 to 100 |  | 25 to 100 |  | xxx (activity was measured to be less than 2.0 μM) | xxx (activity was measured to be less than 2.0 μM)
CCCOC(=O)N1CCC(N2CCC3(CC2)CN(C(=O)N(C)C)c2ccc(F)cc23)CC1 [compound 91] | xx (activity was measured to be between 0.1 μM and 1.0 μM) | < 65 | xxx (activity was measured to be less than 0.1 μM) | 65 to 85 |  |  |  |  |  | 
